Reference: patent US5073563A, “Alkoxycoumarins substituted by a heterocyclic radical, their preparation and therapeutic agents containing these compounds” (BASF Aktiengesellschaft, priority 1988, dated 1991)
Counter-ions that a name gives are not always drawn.

What was measured:
MAO B = molecular target: T1, MAO B (Rattus norvegicus, UniProt P19643); assay: MAO B inhibition in dilute rat brain homogenate (14C substrate, 20 min at 37° C); assay type: biochemical; conditions: for IC50 ratio MAO A / MAO B: quotient of IC50 MAO A and IC50 MAO B (selectivity for MAO B), 20 min; for IC50: rat brain homogenate, 14C-phenylethylamine or 14C-tryptamine 0.4 μmol/l, 20 minutes at 37° C, logit-log regression
T1 construct: determined in dilute rat brain homogenate; from tissue; host or cells: rat brain homogenate
T1 sequence (P19643 1-520): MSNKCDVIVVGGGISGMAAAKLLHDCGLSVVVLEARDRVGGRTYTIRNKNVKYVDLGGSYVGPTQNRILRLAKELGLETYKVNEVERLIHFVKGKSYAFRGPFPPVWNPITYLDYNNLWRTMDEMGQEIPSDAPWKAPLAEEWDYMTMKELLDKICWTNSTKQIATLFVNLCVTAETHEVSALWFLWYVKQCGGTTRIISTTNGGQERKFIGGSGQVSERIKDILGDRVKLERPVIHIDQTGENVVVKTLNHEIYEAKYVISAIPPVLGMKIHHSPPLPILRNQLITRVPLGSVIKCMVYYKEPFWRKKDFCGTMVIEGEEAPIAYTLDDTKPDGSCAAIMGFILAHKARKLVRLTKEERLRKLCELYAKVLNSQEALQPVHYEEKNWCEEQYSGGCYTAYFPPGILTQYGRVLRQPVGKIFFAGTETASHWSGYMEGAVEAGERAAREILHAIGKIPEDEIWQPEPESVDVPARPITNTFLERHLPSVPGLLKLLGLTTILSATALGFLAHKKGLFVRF
Method: (§1) The MAO-inhibiting activity of the novel compounds can be determined using standard methods. […] The mixture was incubated for 20 minutes at 37° C.
(§2) The blank value was determined in similar mixtures with an incubation time of t=0 min.
(§3) From the inhibitory values determined at the various inhibitor concentrations against a control, the mean inhibitory concentration (IC50) was calculated by linear regression following logit-log transformation.

MAO A = molecular target: T2, MAO A (Rattus norvegicus, UniProt P21396); assay: MAO A inhibition in dilute rat brain homogenate (14C substrate, 20 min at 37° C); assay type: biochemical; conditions: 14C-phenylethylamine or 14C-tryptamine 0.4 μmol/l, logit-log regression
T2 construct: determined in dilute rat brain homogenate; from tissue; host or cells: rat brain homogenate
T2 sequence (P21396 1-526): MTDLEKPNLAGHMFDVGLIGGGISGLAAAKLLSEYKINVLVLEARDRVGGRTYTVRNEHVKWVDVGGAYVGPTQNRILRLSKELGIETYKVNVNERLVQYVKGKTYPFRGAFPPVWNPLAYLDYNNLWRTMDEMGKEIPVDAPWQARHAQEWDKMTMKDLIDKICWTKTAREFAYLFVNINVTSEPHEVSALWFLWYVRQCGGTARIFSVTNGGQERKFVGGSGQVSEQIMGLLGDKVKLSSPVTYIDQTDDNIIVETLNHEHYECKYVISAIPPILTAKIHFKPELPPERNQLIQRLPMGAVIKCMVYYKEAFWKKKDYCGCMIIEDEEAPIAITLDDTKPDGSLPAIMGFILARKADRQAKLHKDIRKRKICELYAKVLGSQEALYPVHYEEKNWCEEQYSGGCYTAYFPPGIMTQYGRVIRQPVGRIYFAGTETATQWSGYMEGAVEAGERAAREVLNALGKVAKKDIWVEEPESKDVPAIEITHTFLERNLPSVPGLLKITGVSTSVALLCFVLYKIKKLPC
Method: as §1, §2, §3

## Cc1c(C)c2ccc(OCc3cc(C(C)C)no3)cc2oc1=O [Example 33, 7-(3-Isopropylisoxazol-5-yl)-methoxy-3,4-dimethylcoumarin]
MAO B
  IC50 ratio MAO A / MAO B: ~ 8200
  IC50: 0.73 nM
MAO A
  IC50: ~6000 nM

## Cc1c(C)c2ccc(OCc3cc(CC(C)C)no3)cc2oc1=O [Example 34, 7-(3-Isobutylisoxazol-5-yl)-methoxy-3,4-dimethylcoumarin]
MAO B
  IC50 ratio MAO A / MAO B: ~ 4500
  IC50: 2.2 nM
MAO A
  IC50: ~10000 nM

## Cc1c(C)c2ccc(OCc3cc(C(C)(C)C)no3)cc2oc1=O [Example 35, 7-(3-tert-Butylisoxazol-5-yl)-methoxy-3,4-dimethylcoumarin]
MAO B
  IC50 ratio MAO A / MAO B: > 11000
  IC50: 0.92 nM
MAO A
  IC50: > 10000 nM

## Cc1ccc(COc2ccc3c(C)c(C)c(=O)oc3c2)s1 [Example 42, 3,4-Dimethyl-7-(2-methylthiophen-5-yl)-methoxycoumarin]
MAO B
  IC50 ratio MAO A / MAO B: 680
  IC50: 0.51 nM
MAO A
  IC50: 350 nM

## Cc1c(C)c2ccc(OCc3nc(C4CC4)no3)cc2oc1=O [Example 44, 3,4-Dimethyl-7-(3-cyclopropyl-1,2,4-oxadiazol-5-yl)-methoxycoumarin]
MAO B
  IC50 ratio MAO A / MAO B: ~ 5800
  IC50: 1.2 nM
MAO A
  IC50: ~7000 nM

## Cc1ccsc1COc1ccc2c(C)c(C)c(=O)oc2c1 [Example 45, 3,4-Dimethyl-7-(3-methylthiophen-2-yl)-methoxycoumarin]
MAO B
  IC50 ratio MAO A / MAO B: 450
  IC50: 0.51 nM
MAO A
  IC50: 230 nM

## Cc1noc(COc2ccc3c(C)c(C)c(=O)oc3c2)n1 [Example 50, 3,4-Dimethyl-7-(3-methyl-1,2,4-oxadiazol-5-yl)-methoxycoumarin]
MAO B
  IC50 ratio MAO A / MAO B: ~ 930
  IC50: 4.3 nM
MAO A
  IC50: ~4000 nM

## Cc1c(C)c2ccc(OCc3cc(C4CC4)no3)cc2oc1=O [Example 51, 7-(3-Cyclopropylisoxazol-5-yl)-methoxy-3,4-dimethylcoumarin]
MAO B
  IC50 ratio MAO A / MAO B: > 12500
  IC50: 0.8 nM
MAO A
  IC50: > 10000 nM

## Cc1c(Cl)c(=O)oc2cc(OCc3cc(C(C)C)n(C)n3)ccc12 [Example 54, 3-Chloro-7-(5-isopropyl-1-methylpyrazol-3yl)-methoxy-4-methylcoumarin]
MAO B
  IC50 ratio MAO A / MAO B: > 6700
  IC50: 1.5 nM
MAO A
  IC50: > 10000 nM

## CC(C)c1cc(COc2ccc3c4c(c(=O)oc3c2)CCCC4)nn1C [Example 55, 7-(5-Isopropyl-1-methylpyrazol-3-yl)-methoxy-3,4-tetramethylenecoumarin]
MAO B
  IC50 ratio MAO A / MAO B: > 1000
  IC50: 10 nM
MAO A
  IC50: > 10000 nM

## Cc1c(C)c2ccc(OCc3cc(C4CC4)on3)cc2oc1=O [Example 58, 7-(5-Cyclopropylisoxazol-3-yl)-methoxy-3,4-dimethylcoumarin]
MAO B
  IC50 ratio MAO A / MAO B: ~ 8300
  IC50: 0.84 nM
MAO A
  IC50: ~7000 nM

## Cc1c(C)c2ccc(OCc3cc(C4CC4)n(C)n3)cc2oc1=O [Example 61, 7-(5-Cyclopropyl-1-methylpyrazol-3-yl)-methoxy-3,4-dimethylcoumarin]
MAO B
  IC50 ratio MAO A / MAO B: > 1100
  IC50: 1.9 nM
MAO A
  IC50: > 10000 nM

## CCOc1nnc(COc2ccc3c(C)c(C)c(=O)oc3c2)s1 [Example 62, 7-(2-Ethoxy-1,3,4-thiadiazol-5-yl)-methoxy-3,4-dimethylcoumarin]
MAO B
  IC50 ratio MAO A / MAO B: > 1300
  IC50: 7.5 nM
MAO A
  IC50: > 10000 nM

## Cc1nnc(COc2cc3oc(=O)c(C)c(C)c3cc2Br)s1 [Example 67, 6-Bromo-3,4-dimethyl-7-(2methyl-1,3,4-thiadiazol-5-yl)-methoxycoumarin]
MAO B
  IC50 ratio MAO A / MAO B: > 9100
  IC50: 1.1 nM
MAO A
  IC50: > 10000 nM

## Cc1c(C)c2ccc(OCc3cc(C4CCC4)no3)cc2oc1=O [Example 68, 7-(3-Cyclobutylisoxazol-5-yl)-methoxy-3,4-dimethylcoumarin]
MAO B
  IC50 ratio MAO A / MAO B: > 13000
  IC50: 0.77 nM
MAO A
  IC50: > 10000 nM

## Cc1c(C)c2ccc(OCc3ncnn3C(C)C)cc2oc1=O [Example 70, 7-(1-Isopropyl-1,2,4-triazol-5-yl)-methoxy-3,4-dimethylcoumarin hydrochloride]
MAO B
  IC50 ratio MAO A / MAO B: > 770
  IC50: 13 nM
MAO A
  IC50: > 10000 nM

## Cc1c(C)c2ccc(OCc3cc(C(C)C)nn3C)cc2oc1=O [Example 72, 7-(3-Isopropyl-1-methylpyrazol-5-yl)-methoxy-3,4-dimethylcoumarin]
MAO B
  IC50 ratio MAO A / MAO B: ~ 2000
  IC50: 4.9 nM
MAO A
  IC50: ~10000 nM

## Cc1c(C)c2ccc(OCc3cc(C)n(C)n3)cc2oc1=O [Example 73, 3,4-Dimethyl-7-(1,5-dimethylpyrazol-3-yl)-methoxycoumarin]
MAO B
  IC50 ratio MAO A / MAO B: > 700
  IC50: 14 nM
MAO A
  IC50: > 10000 nM

## Cc1c(C)c2ccc(OCc3csc(Cc4ccccc4)n3)cc2oc1=O [Example 74, 7-(2-Benzylthiazol-4-yl)-methoxy-3,4-dimethylcoumarin]
MAO B
  IC50 ratio MAO A / MAO B: 580
  IC50: 5.5 nM
MAO A
  IC50: 3200 nM

## Cc1c(C)c2ccc(OCc3csc(C(C)C)n3)cc2oc1=O [Example 75, 7-(2-Isopropylthiazol-4-yl)-methoxy-3,4-dimethylcoumarin]
MAO B
  IC50 ratio MAO A / MAO B: ~ 7000
MAO A
  IC50: ~10000 nM

## Cc1c(C)c2ccc(OCc3cc(C4CCCC4)no3)cc2oc1=O [Example 78, 7-(3-Cyclopentylisoxazol-5-yl)-methoxy-3,4-dimethylcoumarin]
MAO B
  IC50 ratio MAO A / MAO B: > 7700
  IC50: 1.3 nM
MAO A
  IC50: > 10000 nM

## COC(C)c1cc(COc2ccc3c(C)c(C)c(=O)oc3c2)on1 (centres unmarked) [Example 79, 7-[3-(1-Methoxyethyl)-isoxazol-5-yl]-methoxy-3,4-dimethylcoumarin]
MAO B
  IC50 ratio MAO A / MAO B: 2400
  IC50: 1.2 nM
MAO A
  IC50: 2900 nM

## Cc1c(C)c2ccc(OCc3csc(C4CC4)n3)cc2oc1=O [Example 80, 7-(2-Cyclopropylthiazol-4-yl)-methoxy-3,4-dimethylcoumarin]
MAO B
  IC50 ratio MAO A / MAO B: ~ 7100
  IC50: 1.4 nM
MAO A
  IC50: ~10000 nM

## CCc1cc2c(C)c(C)c(=O)oc2cc1OCc1cc(C(C)C)n(C)n1 [Example 84, 6-Ethyl-7-(5-isopropyl-1-methylpyrazol-3-yl)-methoxy-3,4-dimethylcoumarin]
MAO B
  IC50 ratio MAO A / MAO B: > 1100
  IC50: 9.1 nM
MAO A
  IC50: > 10000 nM

## CCc1cc2c(C)c(C)c(=O)oc2cc1OCc1nnc(C)s1 [Example 85, 6-Ethyl-3,4-dimethyl-7-(2-methyl-1,3,4-thiadiazol-5-yl)-methoxycoumarin]
MAO B
  IC50 ratio MAO A / MAO B: > 1700
  IC50: 6.9 nM
MAO A
  IC50: > 10000 nM

## Cc1c(C)c2ccc(OCc3cc(C4CCCCC4)no3)cc2oc1=O [Example 87, 7-(3-Cyclohexylisoxazol-5-yl)-methoxy-3,4-dimethylcoumarin]
MAO B
  IC50 ratio MAO A / MAO B: > 700
  IC50: 14 nM
MAO A
  IC50: > 10000 nM

## Cc1c(C)c2ccc(OCc3ccc(C(C)(C)C)s3)cc2oc1=O [Example 92, 7-(2-tert-Butylthiophen-5-yl)-methoxy-3,4-dimethylcoumarin]
MAO B
  IC50 ratio MAO A / MAO B: > 1000
  IC50: ~10 nM
MAO A
  IC50: > 10000 nM

## Cc1c(C)c2ccc(OCc3nnc(C4CC4)s3)cc2oc1=O [Example 94, 3,4-Dimethyl-7-(2-cyclopropyl-1,3,4-thiadiazol-5yl)-methoxycoumarin]
MAO B
  IC50 ratio MAO A / MAO B: ~ 8300
  IC50: 1.2 nM
MAO A
  IC50: ~10000 nM
